Assay results reported in patent US20260355080A1, “COSMETIC COMPOSITION FOR PREVENTING OR AMELIORATING SKIN DISEASES, COMPRISING MORUS ALBA-DERIVED COMPOUND AS ACTIVE INGREDIENT” (DONGGUK UNIVERSITY INDUSTRY-ACADEMIC COOPERATION FOUNDATION, priority 2022, published 2026).

Experiments:
Format in all cases: cell-based
[1] = system: tyrosinase; assay: Western blot of tyrosinase expression in control gene overexpressing (pCMV) keratinocyte/melanocyte co-cultured cell model; settings: control gene overexpressing co-cultured cell model (pCMV, of the CDH11 experiment), 10 μM, 48 hours; FIG. 3
Procedure: (§1) Keratinocytes were seeded in a culture container at 2×10^5/ml, after 24 hours, pCMV plasmids containing one of three genes [arginase 2 (ARG2, NCBI Gene ID: 384), cadherin 11 (CDH11, NCBI Gene: 1009), and guanine deaminase (GDA, NCBI Gene: 9615)] were transfected into cells using Lipofectamine 2000 to induce overexpression, and after 4 hours of culture with Dulbecco's Modified Essential Medium (DMEM) culture medium without supplements, 0.5×10^5/ml melanocytes were mixed with the keratinocyte culture medium containing supplements and co-cultured in the same culture container. After 24 hours, the keratinocyte culture medium without supplements was replaced, and after 5 hours, the normal melanocytes were treated with the 16 candidate materials for 48 hours. […]
(§2) In order to identify the skin whitening and anti-aging effects of 16 candidate materials in Example 1-2, for the skin whitening effect, each of the three types of cell models constructed in the Example 2-1 was treated with the 16 candidate materials at concentrations at which no cytotoxicity is shown in the melanocytes identified in Example 1-1 for 48 hours, and then Western blot was performed to measure the expression of tyrosinase. The experiment was repeated 4 times, and P<0.05 was determined to be significant. […] The experiment was repeated 4 times, and P<0.05 was determined to be significant.

[2] = MTT cytotoxicity assay in melanocytes; settings: human, tested at 10, 50, and 100 μM, FIG. 1, read-out: treatment concentration up to which no cytotoxicity was shown
Procedure: (§3) Melanocytes used were isolated from normal adult skin tissues obtained through repeated cesarean section and circumcision. Dispase 2.4U (#295 825; Roche, Mannheim, Germany) was treated for 1 hour to separate the epidermis, and 0.05% trypsin was treated for 10 minutes to isolate melanocytes. Afterwards, the cells were suspended in Medium 254, and the bovine pituitary extract (BPE), fetal bovine serum (FBS), hydrocortisone, basic fibroblast growth factor (bFGF), bovine transferrin (BT), heparin, and phorbol 12-myristate13-acetate (PMA, Invitrogen) were added and cultured. The cells that had undergone the 3rd~5th passage culture were used in the experiment.
In order to identify cytotoxicity of the 136 candidate materials, MTT assays were performed. Melanocytes were treated with the candidate materials by concentration (10, 50, and 100 μM) for 48 hours, and the cell viability was measured to determine the concentration range at which no cytotoxicity of each candidate material is observed.

[3] = system: tyrosinase; assay: Western blot of tyrosinase expression in GDA overexpressing keratinocyte/melanocyte co-cultured cell model; settings: 10 μM, 48 hours, P<0.05 significant, FIG. 3
Procedure: as §1, §2

[4] = system: p16 (Ink4a); assay: Western blot of p16 (Ink4a) expression in keratinocytes (anti-aging effect); settings: 10 μM, 48 hours, P<0.05 significant, FIG. 4
Procedure: Keratinocytes used were isolated from normal adult skin tissues obtained through repeated cesarean section and circumcision. The cells were dispensed into EpiLife Medium, and bovine pituitary extract (BPE), bovine insulin (BI), hydrocortisone, human epidermal growth factor (EGF), and bovine transferrin (BT) were added and cultured. The cells that had undergone the 3rd~5th passage culture were used in the experiment. The pituitary extract, bovine insulin, hydrocortisone, human epidermal growth factor, and bovine transferrin were used by purchasing from Invitrogen.
In order to identify the skin whitening and anti-aging effects of 16 candidate materials in Example 1-2, for the skin whitening effect, each of the three types of cell models constructed in the Example 2-1 was treated with the 16 candidate materials at concentrations at which no cytotoxicity is shown in the melanocytes identified in Example 1-1 for 48 hours, and then Western blot was performed to measure the expression of tyrosinase. The experiment was repeated 4 times, and P<0.05 was determined to be significant. In addition, for analysis on the anti-aging effect, the keratinocytes were treated with the above 16 candidate materials for 48 hours each, and then Western blot was performed to measure the expression of p16 (Ink4a). The experiment was repeated 4 times, and P<0.05 was determined to be significant.

[5] = system: tyrosinase; assay: Western blot of tyrosinase expression in ARG2 overexpressing keratinocyte/melanocyte co-cultured cell model; settings: 10 μM, 48 hours, P<0.05 significant, FIG. 3
Procedure: as §1, §2

[6] = system: tyrosinase; assay: Western blot of intracellular tyrosinase expression in melanocytes (skin whitening effect); settings: 10 μM M55 (other candidates at non-cytotoxic concentration), 48 hours, FIG. 2
Procedure: as §3
In order to identify the skin whitening effect of the 136 candidate materials, Western blot was performed. After treating melanocytes with the candidate material at a concentration at which no cytotoxicity was shown in the melanocytes identified in Example 1-2 for 48 hours, intracellular tyrosinase expression was measured. The experiment was repeated 4 times or more.

[7] = system: tyrosinase; assay: Western blot of tyrosinase expression in CDH11 overexpressing keratinocyte/melanocyte co-cultured cell model; settings: 10 μM, 48 hours, FIG. 3
Procedure: as §1, §2

[8] = system: tyrosinase; p16 (Ink4a); assay: Combined analysis of skin whitening (tyrosinase expression, co-cultured cell models) and anti-aging (p16 expression, keratinocytes) effects; settings: 16 candidate materials tested, 48 hours
Procedure: as §1, §2

For `COC(=O)C[C@@H](O)CC(=O)O` [M55], the “tyrosinase expression compared to the control group” value [1] was “increased”, the MNTC at 48 h [2] was ≥ 10 µM and the “tyrosinase expression compared to the control group” value [3] was “significant decrease”. The “p16 (Ink4a) expression compared to the control group” value [4] was “significantly reduced”, the “tyrosinase expression compared to the control group” value [5] was “significant decrease” and the “tyrosinase expression compared to the control group” value [6] was “significantly reduced”. For the same molecule, the “tyrosinase expression compared to the control group” value [7] was “reduced” and the “skin whitening and anti-aging effects shown together” value [8] was “skin whitening and anti-aging effects were shown together”.
